Measurements published in ChEMBL document CHEMBL4622935, “Novel anticancer drug curaxin CBL0137 impairs DNA methylation by eukaryotic DNA methyltransferase Dnmt3a” (Bioorg Med Chem Lett, 2020).

Tests used:
[1] = target: DNA (cytosine-5)-methyltransferase 3A (Homo sapiens, UniProt Q9Y6K1); experiment: Binding affinity to DNMT3A catalytic domain (unknown origin) assessed as inhibition of enzyme-mediated DNA methylation preincubated for 1 hr followed by enzyme addition measured after 1 hr in presence of AdoMet by PAGE analysis
Chain of DNA (cytosine-5)-methyltransferase 3A (Homo sapiens, UniProt Q9Y6K1) (Q9Y6K1 whole entry, looked up, the tested form may be a part): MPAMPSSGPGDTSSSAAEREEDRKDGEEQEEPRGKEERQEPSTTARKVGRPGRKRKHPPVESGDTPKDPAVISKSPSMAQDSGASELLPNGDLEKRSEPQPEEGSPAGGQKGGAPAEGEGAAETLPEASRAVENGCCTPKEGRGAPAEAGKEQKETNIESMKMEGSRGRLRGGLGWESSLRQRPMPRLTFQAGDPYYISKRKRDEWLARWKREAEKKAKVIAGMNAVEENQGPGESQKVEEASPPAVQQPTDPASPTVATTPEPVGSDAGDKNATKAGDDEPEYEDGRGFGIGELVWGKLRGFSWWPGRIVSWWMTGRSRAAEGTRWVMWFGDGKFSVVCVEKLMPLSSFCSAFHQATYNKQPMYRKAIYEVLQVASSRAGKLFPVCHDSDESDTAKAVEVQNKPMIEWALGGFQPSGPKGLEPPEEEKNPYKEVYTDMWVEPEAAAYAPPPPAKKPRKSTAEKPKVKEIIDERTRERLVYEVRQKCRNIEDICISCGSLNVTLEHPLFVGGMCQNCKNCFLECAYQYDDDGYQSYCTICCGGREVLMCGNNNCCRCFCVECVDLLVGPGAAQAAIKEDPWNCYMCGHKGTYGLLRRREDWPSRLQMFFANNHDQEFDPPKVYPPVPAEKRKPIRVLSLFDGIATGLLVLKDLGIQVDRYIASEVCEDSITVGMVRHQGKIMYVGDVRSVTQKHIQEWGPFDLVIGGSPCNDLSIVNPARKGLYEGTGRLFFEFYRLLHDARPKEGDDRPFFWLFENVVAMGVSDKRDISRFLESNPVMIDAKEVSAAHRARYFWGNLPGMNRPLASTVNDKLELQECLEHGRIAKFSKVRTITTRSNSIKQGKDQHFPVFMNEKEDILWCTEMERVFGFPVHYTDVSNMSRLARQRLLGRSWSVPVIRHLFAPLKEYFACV

[2] = target: T1, DNA (cytosine-5)-methyltransferase 3A (Mus musculus, UniProt O88508); experiment: Inhibition of murine DNMT3A catalytic domain-mediated DNA methylation using 5'-6FAM-tagged 30-mer duplex DNA (17 AT bp) as substrate preincubated for 30 mins followed by enzyme addition
[3] = target: DNA (cytosine-5)-methyltransferase 3A (Mus musculus) (UniProt O88508); experiment: Inhibition of murine DNMT3A catalytic domain-mediated DNA methylation using 5'-6FAM-tagged 30-mer duplex DNA (17 AT bp) as substrate at 60 uM preincubated for 30 mins followed by enzyme addition relative to control
DNA [4] = experiment: Binding affinity to 5'-6FAM-tagged 30-mer duplex DNA (17 AT bp) (unknown origin) assessed as dissociation constant for complound-DNA complex by fluorescence polarization assay; format: nucleic-acid assay
DNA [5] = experiment: Binding affinity to 5'-6FAM-tagged 30-mer duplex DNA (22 AT bp) (unknown origin) assessed as dissociation constant for complound-DNA complex by fluorescence polarization assay; format: nucleic-acid assay
[6] = target: T1, DNA (cytosine-5)-methyltransferase 3A; experiment: Inhibition of murine DNMT3A catalytic domain-mediated DNA methylation using 5'-6FAM-tagged 30-mer duplex DNA (22 AT bp) as substrate preincubated for 30 mins followed by enzyme addition
[7] = target: DNA (cytosine-5)-methyltransferase 3A (Mus musculus) (UniProt O88508); experiment: Binding affinity to murine DNMT3A catalytic domain assessed as fold reduction in compound fluorescence at 5 uM by dialysis method relative to control
[8] = target: DNA (cytosine-5)-methyltransferase 3A (Mus musculus) (UniProt O88508); experiment: Inhibition of murine DNMT3A catalytic domain-mediated DNA methylation using 5'-6FAM-tagged 30-mer duplex DNA (22 AT bp) as substrate at 60 uM preincubated for 30 mins followed by enzyme addition relative to control

Row | Compound | IC50 [1] | IC50 [2] | inhibition [3] | Kd (DNA [4]) | Kd (DNA [5]) | IC50 [6] | fold change (FC) [7] | inhibition [8]
1 | CCC1/C=C/C=C/C[C@H](C)[C@@H](O)[C@](C)(O)C(=O)[C@@H](C)[C@H](O)[C@@H](C)C(=O)[C@H](C)[C@@H](O)[C@H](C)/C=C/C(=O)OC2[C@@H](C)C(CC1)OC1(CC[C@@H](C)C(C[C@H](C)O)O1)[C@@H]2C (stereo not given in full) | 6 µM |  |  |  |  |  |  | 
2 | COc1cccc2c1C(=O)c1c(O)c3c(c(O)c1C2=O)C[C@@](O)(C(=O)CO)C[C@@H]3O[C@H]1C[C@H](N)[C@H](O)[C@H](C)O1 [DOXORUBICIN] |  | 3 µM | 70% |  |  |  |  | 
3 | CC(=O)c1ccc2c(c1)c1cc(C(C)=O)ccc1n2CCNC(C)C |  | 9 µM | 80% | 20 µM | 34 µM | 5 µM | 20 | 51%
